Data published in patent US9499585B2, “Bioactive peptide complexes” (priority 2012, dated 2016).
No end group written: not given here.

Experiments:
Type I interferons = Type I interferons induction; conditions: FIG. 6
Excerpt: Type I interferons induction was studied by the previously published method [F. I. Yershov., O. I. Kiselev. Interferons and their inducers (from the molecule to the drug) M.: Publ. House. Geotar—Media, 2005-P. 356, Chernysh et al. 2002].

[1] = Zn^++ ion binding with A1 peptide by light-scattering method; assay type: physicochemical; conditions: Zn(NO3)2; light scattering at 400 nm; aggregates dissolve on adding EDTA
Excerpt: Zn^++ ion binding with alloferon 1 (A1) and its homologs was studied by the method described [Shi Y., Beger R. D., Berg J. M. Metal binding properties of single amino acid deletion mutants of zinc finger peptides: studies using cobalt(II) as a spectroscopic prob. Biophys. J., 1993, Vol. 64, p. 749-753]. Zn^++ ion binding with A1 peptide was studied by the light-scattering method using ISS, Campaign, IL fluorimeter at 400 nm and excitation light 398 nm.
For analysis conditions refer to Shi Y. et al. (1993)
A—(open circles) A1 and Zn(N03)2. interaction Excess molar quantity of Zn^++ ion comparing to peptide was 1:10. Firm line—peptide enrichment with Zn^+ ion. Ground peptide mass changed into aggregates with complete enrichment. EDTA was added to aggregates. Subsequent to addition of EDTA the complex quickly dissociated and peptide (alloferon) changed to soluble phase.

[2] = test system: A/Aichi/2/68 (H3N2) flu strain; assay type: in vivo, white mice

| Compound | interferon induction activity (Type I interferons) | diameter of polydisperse nanoparticles formed on peptide aggregation with Zn^++ [1] | protective effect (in words) ([2]; mouse, in vivo) | protective effect ([2]; […], mice observed 15 days) |
| --- | --- | --- | --- | --- |
| HGVSGHGQHGVHG [Alloferon A1, nonmodified base peptide] | quite high level of interferon induction ability | 50-60 nm | comparable to efficiency of the protective effect of reference drug Remantadin |  |
| CC(N)C12CC3CC(CC(C3)C1)C2 (stereo not shown) [Remantadin] |  |  |  | 80-87% |
